Laboratory results as given in ChEMBL document CHEMBL1800070, “Inhibition of a prolyl hydroxylase domain (PHD) by substrate analog peptides” (Bioorg Med Chem Lett, 2011).
The source made the active and inactive calls. The rule behind the calls is not given here.

Tests used:
[1] = biological target: Hypoxia-inducible factor 1-alpha inhibitor (Homo sapiens) (UniProt Q9NWT6); experiment: Inhibition of FIH assessed as inhibition of hydroxylation of C-TAD peptide at 100 uM after 2 hrs by fluorescent polarization assay in presence of 2-oxoglutarate
[2] = biological target: T1, Egl nine homolog 1 (Homo sapiens, UniProt Q9GZT9); experiment: Competitive inhibition of GST-tagged PHD2 active site assessed as inhibition of hydroxylation of fluorescein-labeled HIF1alpha CODD peptide at 100 uM after 2 hrs by fluorescent polarization assay in presence of 2-oxoglutarate
Target sequence in this assay (Q9GZT9 2-426 limits assumed): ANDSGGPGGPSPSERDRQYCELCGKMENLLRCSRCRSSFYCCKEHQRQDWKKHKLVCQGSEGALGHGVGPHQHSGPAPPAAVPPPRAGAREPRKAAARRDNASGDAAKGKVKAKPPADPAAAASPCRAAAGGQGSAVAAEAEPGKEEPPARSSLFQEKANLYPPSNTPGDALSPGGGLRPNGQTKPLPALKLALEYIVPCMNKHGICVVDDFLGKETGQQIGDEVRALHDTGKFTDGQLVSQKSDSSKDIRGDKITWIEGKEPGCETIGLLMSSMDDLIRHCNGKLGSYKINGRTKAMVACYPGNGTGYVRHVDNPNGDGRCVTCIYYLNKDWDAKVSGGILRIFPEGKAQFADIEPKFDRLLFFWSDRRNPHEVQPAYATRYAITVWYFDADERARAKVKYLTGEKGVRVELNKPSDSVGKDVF

[3] = biological target: T1, Egl nine homolog 1; experiment: Inhibition of GST-tagged PHD2 assessed as inhibition of hydroxylation of fluorescein-labeled HIF1alpha CODD peptide after 1 hr by fluorescent polarization assay in presence of 2-oxoglutarate
Target sequence in this assay (Q9GZT9 whole entry): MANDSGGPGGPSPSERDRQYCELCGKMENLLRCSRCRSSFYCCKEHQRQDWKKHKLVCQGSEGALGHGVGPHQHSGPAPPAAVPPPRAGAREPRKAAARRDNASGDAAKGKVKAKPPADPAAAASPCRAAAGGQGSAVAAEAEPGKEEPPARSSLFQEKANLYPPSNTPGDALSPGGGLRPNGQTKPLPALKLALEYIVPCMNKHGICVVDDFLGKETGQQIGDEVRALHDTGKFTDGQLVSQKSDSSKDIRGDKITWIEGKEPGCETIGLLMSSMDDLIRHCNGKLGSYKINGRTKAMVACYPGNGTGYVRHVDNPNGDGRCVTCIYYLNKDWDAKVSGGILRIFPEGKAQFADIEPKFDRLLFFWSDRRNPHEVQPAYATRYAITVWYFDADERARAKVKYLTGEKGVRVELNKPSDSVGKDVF

[4] = biological target: T1, Egl nine homolog 1; experiment: Inhibition of GST-tagged PHD2 assessed as inhibition of hydroxylation of biotinylated HIF1alpha CODD peptide at 100 uM after 20 mins by MALDI-TOF technique in presence of 2-oxoglutarate
Target sequence in this assay (Q9GZT9 2-426 limits assumed): as the sequence (Q9GZT9 2-426 limits assumed) above

[5] = biological target: T1, Egl nine homolog 1; experiment: Inhibition of GST-tagged PHD2 assessed as inhibition of hydroxylation of fluorescein-labeled HIF1alpha CODD peptide at 100 uM after 2 hrs by fluorescent polarization assay in presence of 2-oxoglutarate
Target sequence in this assay (Q9GZT9 2-426 limits assumed): as above

[6] = biological target: T1, Egl nine homolog 1; experiment: Inhibition of PHD2 in human HeLa cells assessed as stabilization of HIF1alpha at 1 mM incubated for 6 hrs under normoxic conditions by Western blot analysis relative to control; assay type: cell-based
Target sequence in this assay (Q9GZT9 2-426 limits assumed): as above

[7] = biological target: T1, Egl nine homolog 1; experiment: Inhibition of PHD2 in human HeLa cells assessed as stabilization of HIF1alpha at 100 uM incubated for 6 hrs under normoxic conditions by Western blot analysis relative to control; assay type: cell-based
Target sequence in this assay (Q9GZT9 2-426 limits assumed): as above

[8] = biological target: T1, Egl nine homolog 1; experiment: Competitive inhibition of GST-tagged PHD2 active site assessed as inhibition of hydroxylation of fluorescein-labeled HIF1alpha CODD peptide at 200 uM after 2 hrs by fluorescent polarization assay in presence of 2-oxoglutarate
Target sequence in this assay (Q9GZT9 2-426 limits assumed): as above

Chain of Hypoxia-inducible factor 1-alpha inhibitor (Homo sapiens) (Q9NWT6 whole entry): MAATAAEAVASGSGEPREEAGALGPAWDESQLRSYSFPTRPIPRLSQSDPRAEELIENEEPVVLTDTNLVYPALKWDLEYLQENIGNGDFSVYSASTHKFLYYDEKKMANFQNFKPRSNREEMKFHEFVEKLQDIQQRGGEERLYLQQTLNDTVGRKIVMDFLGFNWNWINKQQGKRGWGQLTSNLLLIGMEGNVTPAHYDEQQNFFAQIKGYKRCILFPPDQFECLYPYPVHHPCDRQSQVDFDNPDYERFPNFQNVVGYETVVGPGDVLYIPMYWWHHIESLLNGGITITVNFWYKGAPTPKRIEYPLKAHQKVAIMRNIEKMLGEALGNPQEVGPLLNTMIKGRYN

O=C(O)[C@@H]1CC(=S)CN1
inhibition [1]: Active | inhibition [2]: inactive | IC50 [3]: 69.7 µM | inhibition (active/inactive call) [4]: Active | inhibition [5]: Active

O=C(O)[C@@H]1C[C@@H](F)CN1
inhibition (active/inactive call) [4]: inactive

O=C(O)[C@@H]1C=CCN1
inhibition [1]: Active | Activity [6]: Active | inhibition [2]: inactive | IC50 [3]: 8.5 µM | inhibition (active/inactive call) [4]: Active | inhibition [5]: Active

O=C(O)[C@@H]1C[C@@H](O)CN1
inhibition (active/inactive call) [4]: inactive

O=c1cc(-c2ccccc2)oc2cc(O)c(O)c(O)c12
Activity [7]: Active | inhibition [1]: Active | inhibition [8]: Active
